Data taken from PubChem BioAssay AID651817 (Broad Institute, 2012).
Activity calls are given as the source filed them.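 How the source made its calls: active means compound whose fitted luminescence drop, meaning cytotoxicity, reaches half effect at most twice its top valid tested dose; inconclusive means flat curve with a moderate drop, or an unreliable fit; inactive means rise instead of drop, flat response, or weaker potency.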

Assay: mouse fibroblast viability loss – cell-based, cherry-pick samples, set 2, cytotoxicity control for T. cruzi growth inhibitor project, dose response (AID 651817)
Conditions: NIH/3T3 viability, ATP luminescence (CellTiter-Glo), 90 h; at 4.2 µM (top of the series)

SMILES	activity change, negative = cytotoxicity
C[C@@H]1CN([C@H](C)CO)C(=O)c2cccc(NC(=O)Nc3ccc(C(F)(F)F)cc3)c2O[C@@H]1CN(C)Cc1ccc(Cl)c(Cl)c1	37.5% (inactive)

Same assay, conditions: NIH/3T3 viability, ATP luminescence (CellTiter-Glo), 90 h; at 18 µM (top of the series)

SMILES	activity change, negative = cytotoxicity
C[C@H]1CN([C@@H](C)CO)C(=O)Cc2cc(NS(=O)(=O)c3ccc(Cl)cc3)ccc2O[C@@H]1CN(C)S(=O)(=O)c1ccc(Cl)cc1	-1.6% (inactive)

Same assay, conditions: NIH/3T3 viability, ATP luminescence (CellTiter-Glo), 90 h; at 19.5 µM (top of the series)

SMILES	activity change, negative = cytotoxicity
COc1ccc(CN(C)C[C@@H]2Oc3c(NC(=O)c4ccncc4)cccc3C(=O)N([C@@H](C)CO)C[C@H]2C)cc1	-18.8% (inactive)
C[C@H]1CN([C@@H](C)CO)C(=O)c2cccc(NC(=O)c3ccncc3)c2O[C@H]1CN(C)CC1CCCCC1	36.4% (inactive)
C[C@@H]1CN([C@@H](C)CO)C(=O)c2cccc(NC(=O)c3nc4ccccc4s3)c2O[C@@H]1CN(C)S(=O)(=O)c1ccc(Cl)cc1	-8.38% (inactive)
C[C@H]1CN([C@@H](C)CO)C(=O)c2cccc(NC(=O)NC3CCCCC3)c2O[C@@H]1CN(C)S(=O)(=O)c1ccc(F)cc1	3.7% (inactive)
C[C@H](CO)N1C[C@H](C)[C@@H](CN(C)S(=O)(=O)c2ccc(Cl)cc2)Oc2ccc(NS(=O)(=O)c3ccccc3)cc2CC1=O	-20.3% (inactive)
C[C@@H]1CN([C@H](C)CO)C(=O)c2cccc(NC(=O)c3ccncc3)c2O[C@H]1CN(C)Cc1ccc(Oc2ccccc2)cc1	-6.58% (inactive)
COc1ccc(CN(C)C[C@@H]2Oc3c(NC(=O)c4ccncc4)cccc3C(=O)N([C@H](C)CO)C[C@H]2C)cc1	-20.7% (inactive)
C[C@H]1CN([C@@H](C)CO)C(=O)c2cccc(NC(=O)c3ccncc3)c2O[C@@H]1CN(C)Cc1ccc(-c2ccccc2)cc1	-14.8% (inactive)
C[C@H](CO)N1C[C@H](C)[C@@H](CN(C)S(=O)(=O)c2ccc(Cl)cc2)Oc2ccc(NS(=O)(=O)c3ccc(Cl)cc3)cc2CC1=O	-32.5% (inactive)
Cc1ccc(S(=O)(=O)N(C)C[C@H]2Oc3ccc(NS(=O)(=O)c4ccc(Cl)cc4)cc3CC(=O)N([C@H](C)CO)C[C@@H]2C)cc1	3.37% (inactive)
C[C@@H]1CN([C@H](C)CO)C(=O)c2cccc(NC(=O)c3nc4ccccc4s3)c2O[C@H]1CN(C)S(=O)(=O)c1ccc(Cl)cc1	-10.1% (inactive)
C[C@@H]1CN([C@@H](C)CO)C(=O)c2cccc(NC(=O)NC3CCCCC3)c2O[C@H]1CN(C)S(=O)(=O)c1ccc(F)cc1	12.1% (inactive)
C[C@@H]1CN([C@@H](C)CO)C(=O)c2cccc(NC(=O)Nc3ccc(C(F)(F)F)cc3)c2O[C@H]1CN(C)Cc1ccc(Cl)c(Cl)c1	-34.5% (inactive)
C[C@H]1CN([C@@H](C)CO)C(=O)Cc2cc(NS(=O)(=O)c3ccccc3)ccc2O[C@@H]1CN(C)S(=O)(=O)c1ccc(Cl)cc1	-7.84% (inactive)
Cc1ccc(S(=O)(=O)Nc2ccc3c(c2)CC(=O)N([C@H](C)CO)C[C@H](C)[C@H](CN(C)Cc2ccccc2)O3)cc1	-17.1% (inactive)
Cc1ccc(S(=O)(=O)N(C)C[C@@H]2Oc3ccc(NS(=O)(=O)c4ccccc4)cc3CC(=O)N([C@@H](C)CO)C[C@@H]2C)cc1	9.31% (inactive)
C[C@H]1CN([C@@H](C)CO)C(=O)c2cccc(NC(=O)c3nc4ccccc4s3)c2O[C@@H]1CN(C)S(=O)(=O)c1ccc(Cl)cc1	-9.43% (inactive)
C[C@H]1CN([C@@H](C)CO)C(=O)Cc2cc(NS(=O)(=O)c3ccc(Cl)cc3)ccc2O[C@H]1CN(C)S(=O)(=O)c1ccc(Cl)cc1	-12.7% (inactive)
Cc1noc(C)c1NC(=O)Nc1cccc2c1O[C@H](CN(C)S(C)(=O)=O)[C@H](C)CN([C@H](C)CO)C2=O	-14.2% (inactive)
C[C@H]1CN([C@@H](C)CO)C(=O)c2cccc(NC(=O)c3nc4ccccc4s3)c2O[C@H]1CN(C)S(=O)(=O)c1ccc(Cl)cc1	1.37% (inactive)
C[C@H](CO)N1C[C@H](C)[C@H](CN(C)Cc2ccc3c(c2)OCO3)Oc2c(NC(=O)c3ccncc3)cccc2C1=O	-7.03% (inactive)
Cc1ccc(S(=O)(=O)N(C)C[C@H]2Oc3ccc(NS(=O)(=O)c4ccccc4)cc3CC(=O)N([C@H](C)CO)C[C@@H]2C)cc1	-11.8% (inactive)
C[C@@H]1CN([C@H](C)CO)C(=O)c2cccc(NC(=O)c3nc4ccccc4s3)c2O[C@@H]1CN(C)S(=O)(=O)c1ccccc1	35.6% (inactive)

SMILES	activity change, negative = cytotoxicity
C[C@@H]1CN([C@@H](C)CO)C(=O)c2cccc(NC(=O)c3nc4ccccc4s3)c2O[C@H]1CN(C)S(=O)(=O)c1ccccc1	-9.49% (inactive)
Cc1noc(C)c1NC(=O)Nc1cccc2c1O[C@H](CN(C)S(C)(=O)=O)[C@@H](C)CN([C@@H](C)CO)C2=O	-18.2% (inactive)
Cc1ccc(S(=O)(=O)N(C)C[C@@H]2Oc3ccc(NS(=O)(=O)c4ccccc4)cc3CC(=O)N([C@H](C)CO)C[C@@H]2C)cc1	3.11% (inactive)
C[C@H](CO)N1C[C@H](C)[C@H](CN(C)Cc2ccc3c(c2)OCO3)Oc2c(NC(=O)c3nc4ccccc4s3)cccc2C1=O	-1.97% (inactive)
Cc1noc(C)c1NC(=O)Nc1cccc2c1O[C@@H](CN(C)S(C)(=O)=O)[C@H](C)CN([C@@H](C)CO)C2=O	-28% (inactive)
C[C@@H]1CN([C@@H](C)CO)C(=O)Cc2cc(NS(=O)(=O)c3ccccc3)ccc2O[C@@H]1CN(C)S(=O)(=O)c1ccc(Cl)cc1	-12.4% (inactive)
C[C@@H]1CN([C@@H](C)CO)C(=O)c2cccc(NC(=O)c3ccncc3)c2O[C@H]1CN(C)Cc1ccc2c(c1)OCO2	-26.4% (inactive)
Cc1ccc(S(=O)(=O)Nc2ccc3c(c2)CC(=O)N([C@H](C)CO)C[C@@H](C)[C@@H](CN(C)Cc2ccccc2)O3)cc1	-12.9% (inactive)
C[C@@H]1CN([C@@H](C)CO)C(=O)c2cccc(NC(=O)c3nc4ccccc4s3)c2O[C@@H]1CN(C)S(=O)(=O)c1ccccc1	-7.14% (inactive)
C[C@@H]1CN([C@H](C)CO)C(=O)c2cccc(NC(=O)c3ccncc3)c2O[C@@H]1CN(C)Cc1ccc(C(F)(F)F)cc1	-24.5% (inactive)
C[C@H](CO)N1C[C@H](C)[C@H](CN(C)Cc2ccc(-c3ccccc3)cc2)Oc2c(NC(=O)c3ccncc3)cccc2C1=O	4.37% (inactive)
COc1ccc(CN(C)C[C@H]2Oc3c(NC(=O)Nc4ccc(C(F)(F)F)cc4)cccc3C(=O)N([C@H](C)CO)C[C@@H]2C)cc1	-1.02% (inactive)
C[C@@H]1CN([C@@H](C)CO)C(=O)c2cccc(NC(=O)c3ccncc3)c2O[C@@H]1CN(C)CC1CCCCC1	15.4% (inactive)
COc1ccc(CN(C)C[C@@H]2Oc3c(NC(=O)Nc4ccc(C(F)(F)F)cc4)cccc3C(=O)N([C@@H](C)CO)C[C@H]2C)cc1	-16.2% (inactive)
COc1ccc(S(=O)(=O)Nc2ccc3c(c2)CC(=O)N([C@H](C)CO)C[C@@H](C)[C@H](CN(C)Cc2ccc4c(c2)OCO4)O3)cc1	4.02% (inactive)
C[C@@H]1CN([C@@H](C)CO)C(=O)c2cccc(NC(=O)c3ccncc3)c2O[C@H]1CN(C)CC1CCCCC1	-8.6% (inactive)
C[C@H](CO)N1C[C@H](C)[C@@H](CN(C)CC2CCCCC2)Oc2c(NC(=O)c3ccncc3)cccc2C1=O	-21.4% (inactive)
C[C@@H]1CN([C@H](C)CO)C(=O)c2cccc(NC(=O)c3ccncc3)c2O[C@@H]1CN(C)Cc1ccccc1	4.84% (inactive)
C[C@@H]1CN([C@H](C)CO)C(=O)c2cccc(NC(=O)c3ccncc3)c2O[C@@H]1CN(C)Cc1ccc(Cl)c(Cl)c1	-9.65% (inactive)
C[C@H]1CN([C@@H](C)CO)C(=O)c2cccc(NC(=O)c3ccncc3)c2O[C@H]1CN(C)Cc1ccc(C(F)(F)F)cc1	-30.7% (inactive)
C[C@@H]1CN([C@@H](C)CO)C(=O)c2cccc(NC(=O)c3ccncc3)c2O[C@@H]1CN(C)Cc1ccc(-c2ccccc2)cc1	19.3% (inactive)
C[C@@H]1CN([C@H](C)CO)C(=O)c2cccc(NC(=O)NC3CCCCC3)c2O[C@@H]1CN(C)S(=O)(=O)c1ccc(F)cc1	18.6% (inactive)
Cc1ccc(S(=O)(=O)N(C)C[C@@H]2Oc3ccc(NS(=O)(=O)c4ccc(Cl)cc4)cc3CC(=O)N([C@@H](C)CO)C[C@H]2C)cc1	-61.2% (inactive)

Same assay, conditions: NIH/3T3 viability, ATP luminescence (CellTiter-Glo), 90 h; at 21 µM (top of the series)

SMILES	activity change, negative = cytotoxicity
C[C@H]1CN([C@@H](C)CO)C(=O)c2cccc(NC(=O)c3ccncc3)c2O[C@@H]1CN(C)CC1CCCCC1	-19.3% (inactive)
Cc1ccc(S(=O)(=O)N(C)C[C@@H]2Oc3ccc(NS(=O)(=O)c4ccc(Cl)cc4)cc3CC(=O)N([C@@H](C)CO)C[C@@H]2C)cc1	11.5% (inactive)
Cc1ccc(S(=O)(=O)N(C)C[C@H]2Oc3ccc(NS(=O)(=O)c4ccccc4)cc3CC(=O)N([C@@H](C)CO)C[C@H]2C)cc1	-30.2% (inactive)
Cc1ccc(S(=O)(=O)Nc2ccc3c(c2)CC(=O)N([C@H](C)CO)C[C@@H](C)[C@H](CN(C)Cc2ccccc2)O3)cc1	9.12% (inactive)
C[C@H](CO)N1C[C@H](C)[C@H](CN(C)S(=O)(=O)c2ccc(Cl)cc2)Oc2ccc(NS(=O)(=O)c3ccccc3)cc2CC1=O	-11.3% (inactive)
Cc1ccc(S(=O)(=O)Nc2ccc3c(c2)CC(=O)N([C@@H](C)CO)C[C@@H](C)[C@@H](CN(C)Cc2ccc(Cl)c(Cl)c2)O3)cc1	-67.6% (inactive)
C[C@@H]1CN([C@@H](C)CO)C(=O)c2cccc(NC(=O)c3ccncc3)c2O[C@@H]1CN(C)Cc1ccc2c(c1)OCO2	-12.5% (inactive)
